Data as given in patent US10548896B2, “Treatment of relapsed and/or refractory solid tumors and non-Hodgkin's lymphomas” (CELGENE QUANTICEL RESEARCH, INC., priority 2016, dated 2020).
Read-outs that look alike come from different tables or passages of the source.

Legend:
[1] = test system: LXFS 573 SCLC patient-derived xenograft; details: for SS (number of study survivors): Day 133, N=8
[2] = test system: NCI-H1417 SCLC xenograft; details: etoposide monotherapy 24 mg/kg SC QDx3
[3] = test system: NCI-H1417 SCLC xenograft; assay: Efficacy in NCI-H1417 SCLC xenograft model; type: in vivo, female athymic nude mice
[4] = test system: LU2514 SCLC patient derived xenograft; assay: Efficacy in LU2514 HuPrime SCLC PDX model; type: in vivo, female BALB/c nude mice
Description: Tumor growth inhibition analysis was performed on Day 28 post treatment, the last day of dosing.

[5] = test system: LU1480 SCLC patient derived xenograft; assay: Efficacy in LU1480 HuPrime SCLC PDX model; type: in vivo, female BALB/c nude mice
[6] = test system: LXFS 573 SCLC patient derived xenograft; assay: Efficacy in LXFS 573 SCLC PDX model; type: in vivo, female NMRI-Foxn1nu mice; details: 5 to 10 mg/kg oral
[7] = test system: LU2527 lung NEC patient-derived xenograft; type: in vivo; details: 1.5 and 5 mg/kg orally QD
[8] = test system: GA0087 gastric NEC patient-derived xenograft; type: in vivo; details: 1.5 and 5 mg/kg orally QD
[9] = test system: gene expression in MKL-1 cells; assay: Modulation of gene expression by RNA-seq, MKL-1 cells; type: cell-based, human; details: 10 and 100 nM, 3 days
Description: (§1) Libraries were sequenced on an Illumina NextSeq® 500 System (Illumina, San Diego, Calif.) using 75 base paired-end RNA sequencing. Sequenced reads were mapped to the hg19 human genome build and differential expression was determined by analysis of variance across all replicates relative to the vehicle control.
(§2) Sequenced reads were mapped to the hg19 human genome build using the Spliced Transcripts Alignment to a Reference (STAR) software tool (©Alexander Dobin, 2009-2016) and transcript counts were normalized using the Empirical Analysis of Digital Gene Expression Data in R (edgeR) and Differential gene expression analysis based on the negative binomial distribution (DESeq2) software tools ((Bioconductor, 2003-2017). Differential expression was determined by analysis of variance across all replicates relative to the vehicle control.

[10] = test system: gene expression in MS-1 cells; assay: Modulation of gene expression by RNA-seq, MS-1 cells; type: cell-based, human; details: 10 and 100 nM, 3 days
Description: as §1, §2

[11] = test system: ST18 and FREM2 gene expression in MKL-1 tumors; assay: In vivo xenograft dose-response of PD biomarker genes, MKL-1 tumors; set-up: species or system female NSG mice; details: 1, 2.5, or 5 mg/kg PO BID x4.5, tumors 4 hours after last dose
Text: (§3) Female NSG mice bearing palpable hMCC MKL-1 and MS-1 tumors were randomized into four groups of three mice each. […] The fourth group was orally administered vehicle as a control on the BID schedule. Four hours after the last dosing, tumors were collected into RNAlater and stored frozen.
(§4) Total RNA was eluted in RNase-free water and analyzed by qRT-PCR.

[12] = test system: ST18 and FREM2 gene expression in MS-1 tumors; assay: In vivo xenograft dose-response of PD biomarker genes, MS-1 tumors; set-up: species or system female NSG mice; details: 1, 2.5, or 5 mg/kg PO BID x4.5, tumors 4 hours after last dose
Text: as §3, §4

[13] = test system: LNCaP cells; assay: LNCaP cell proliferation with DHT and irradiation; type: cell-based, human; details: 100 nM Compound A with 10 nM DHT and 2Gy irradiation, 220 hours
Description: LNCaP cells are androgen-sensitive human prostate adenocarcinoma cells. […] The proliferation of the LNCap cells was monitored for 220 hours.

[14] = Hemodynamic and ECG parameters in anesthetized guinea pigs; type: in vivo, male Dunkin Hartley guinea pigs
Text: Animals were monitored throughout the experiment.

[15] = 4-week oral gavage pivotal toxicity study with 4-week recovery in dogs (incl. ECG, toxicokinetics); type: in vivo, Beagle dogs
Description: The QTc interval was calculated using the Fridericia method.

[16] = Pharmacokinetics after IV and oral dose, rats; type: in vivo, Sprague Dawley rats; details: IV dosing, rats (greater than liver blood flow)
[17] = molecular target: MDR1 (human P-gp)-MDCK cells (Homo sapiens (Human), UniProt P08183); assay: Permeability in MDR1-MDCK cells; type: in vitro ADME; details: B→A direction
MDR1 (human P-gp)-MDCK cells, sequence (P08183 whole entry): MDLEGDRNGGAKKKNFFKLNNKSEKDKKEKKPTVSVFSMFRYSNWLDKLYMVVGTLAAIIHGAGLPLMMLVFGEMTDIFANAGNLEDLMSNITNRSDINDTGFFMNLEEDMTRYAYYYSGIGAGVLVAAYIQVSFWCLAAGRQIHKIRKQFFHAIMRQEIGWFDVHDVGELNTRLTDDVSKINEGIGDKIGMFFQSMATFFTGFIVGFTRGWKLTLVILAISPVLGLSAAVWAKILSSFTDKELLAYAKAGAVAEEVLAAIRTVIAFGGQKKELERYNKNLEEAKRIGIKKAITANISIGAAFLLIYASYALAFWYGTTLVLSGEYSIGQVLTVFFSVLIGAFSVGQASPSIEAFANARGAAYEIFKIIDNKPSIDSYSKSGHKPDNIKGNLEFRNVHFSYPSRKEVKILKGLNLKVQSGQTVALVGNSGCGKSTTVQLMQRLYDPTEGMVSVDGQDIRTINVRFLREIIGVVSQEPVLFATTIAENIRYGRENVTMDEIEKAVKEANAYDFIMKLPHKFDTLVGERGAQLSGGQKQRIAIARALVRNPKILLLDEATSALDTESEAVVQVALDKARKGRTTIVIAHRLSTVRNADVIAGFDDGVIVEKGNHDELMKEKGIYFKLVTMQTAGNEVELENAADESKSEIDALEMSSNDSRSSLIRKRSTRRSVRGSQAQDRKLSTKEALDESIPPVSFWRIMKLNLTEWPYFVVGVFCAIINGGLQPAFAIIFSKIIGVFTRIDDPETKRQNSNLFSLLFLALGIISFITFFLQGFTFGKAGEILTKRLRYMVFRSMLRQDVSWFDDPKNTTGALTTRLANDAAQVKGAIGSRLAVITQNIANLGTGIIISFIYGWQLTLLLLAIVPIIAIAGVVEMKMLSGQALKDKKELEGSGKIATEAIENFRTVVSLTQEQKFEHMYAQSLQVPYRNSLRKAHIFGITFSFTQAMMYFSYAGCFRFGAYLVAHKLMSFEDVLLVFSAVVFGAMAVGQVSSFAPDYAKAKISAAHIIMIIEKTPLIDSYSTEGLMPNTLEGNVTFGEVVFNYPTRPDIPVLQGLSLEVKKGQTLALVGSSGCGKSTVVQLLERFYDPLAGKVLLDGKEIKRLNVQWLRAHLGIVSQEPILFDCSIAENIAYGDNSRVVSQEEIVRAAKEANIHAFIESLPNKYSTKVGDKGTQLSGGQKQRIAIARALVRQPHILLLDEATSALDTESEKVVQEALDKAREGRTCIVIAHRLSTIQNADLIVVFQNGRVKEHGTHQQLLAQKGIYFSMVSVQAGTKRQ

[18] = Metabolism in cryopreserved primary hepatocytes; type: in vitro ADME, mouse, rat, dog, monkey, human
[19] = test system: recombinant human CYP enzymes; assay: CYP reaction phenotyping with recombinant human CYP enzymes; type: in vitro ADME
Text: The role of non-CYP enzymes in the metabolism of Compound A is yet to be ascertained.

[20] = Excretion in bile duct cannulated rats; type: in vivo; details: IV dosing, 24-hour period
[21] = molecular target: CYP2C9 (Homo sapiens (Human), UniProt P11712); assay: CYP inhibition in pooled human liver microsomes, CYP2C9; type: in vitro ADME; details: up to 50 μM
CYP2C9, sequence (P11712 whole entry): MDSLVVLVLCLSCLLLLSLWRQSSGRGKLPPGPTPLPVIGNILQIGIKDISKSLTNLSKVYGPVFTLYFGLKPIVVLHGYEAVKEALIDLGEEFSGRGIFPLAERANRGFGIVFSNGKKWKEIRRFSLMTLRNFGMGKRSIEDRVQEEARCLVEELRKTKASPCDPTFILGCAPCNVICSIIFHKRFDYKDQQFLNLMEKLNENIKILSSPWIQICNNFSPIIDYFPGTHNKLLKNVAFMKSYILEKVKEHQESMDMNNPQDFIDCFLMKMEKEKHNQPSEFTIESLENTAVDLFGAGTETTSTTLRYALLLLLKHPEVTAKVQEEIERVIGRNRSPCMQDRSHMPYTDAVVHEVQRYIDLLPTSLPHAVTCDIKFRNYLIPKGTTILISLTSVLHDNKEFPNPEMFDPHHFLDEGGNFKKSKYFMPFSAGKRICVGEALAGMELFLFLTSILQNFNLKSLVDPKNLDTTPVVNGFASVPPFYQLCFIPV

[22] = molecular target: CYP2D6 (Homo sapiens (Human), UniProt P10635); assay: CYP inhibition in pooled human liver microsomes, CYP2D6; type: in vitro ADME; details: up to 50 μM
CYP2D6, sequence (P10635 whole entry): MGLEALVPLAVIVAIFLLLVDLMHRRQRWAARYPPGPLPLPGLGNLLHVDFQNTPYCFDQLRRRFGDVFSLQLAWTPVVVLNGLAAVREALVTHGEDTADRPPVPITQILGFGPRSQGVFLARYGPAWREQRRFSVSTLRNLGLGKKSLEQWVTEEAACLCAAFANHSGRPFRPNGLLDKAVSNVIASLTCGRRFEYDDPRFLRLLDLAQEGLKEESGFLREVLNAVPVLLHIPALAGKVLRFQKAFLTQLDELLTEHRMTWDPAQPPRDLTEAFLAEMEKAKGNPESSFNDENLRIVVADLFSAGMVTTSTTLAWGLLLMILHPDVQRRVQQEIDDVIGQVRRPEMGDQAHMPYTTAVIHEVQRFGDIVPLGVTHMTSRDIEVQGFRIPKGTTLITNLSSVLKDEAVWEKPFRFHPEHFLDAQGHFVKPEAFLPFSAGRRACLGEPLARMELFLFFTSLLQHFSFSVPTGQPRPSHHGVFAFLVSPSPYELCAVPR

[23] = Predicted human pharmacokinetics (allometric scaling)
[24] = Exploratory toxicity study in mice; type: in vivo, CD-1 mice; details: for reduction in neutrophil counts versus concurrent controls: 60 mg/kg/dose QOD
Text: Additional animals were included for TK evaluation.

[25] = Exploratory toxicity study in dogs; details: 0.5 mg/kg/day 5 days on/2 days off, Day 12
[26] = 4-week toxicity study with 4-week recovery in mice (incl. toxicokinetics); details: QDx5/week schedule

Question: With `COc1cc([C@@H]2c3cc4c(cc3[C@@H](O[C@@H]3O[C@@H]5CO[C@@H](C)O[C@H]5[C@H](O)[C@H]3O)[C@H]3COC(=O)[C@H]23)OCO4)cc(OC)c1O` [Etoposide, etoposide] as the compound, how does the “median TTE” value ([1]; Etoposide at 24 mg/kg/day SC days 1-3 + Vehicle PO days 4-133) read?
Answer: The value was 63 days.

Question: And the “SS (number of study survivors)” value ([1]; Etoposide at 24 mg/kg/day SC days 1-3 + Vehicle)?
Answer: The value was 0.

Question: What about the “% TGD” value [2] of the same compound?
Answer: Its value is 92%.

Question: What about the TGD [2] of the same compound?
Answer: The TGD was 24 days.

Question: And the “median TTE” value [2]?
Answer: Its value is 50 days.

Question: Which “Median Tumor Volumes (mm^3) Day 0” value ([3]; 2.5 mg base/kg PO QDx65) does the source give for `COc1ccc(-c2c(-c3ccc(C#N)c(F)c3)nc(N3CCC(N)CC3)n(C)c2=O)cc1F` [Compound A, 4-[2-(4-amino-piperidin-1-yl)-5-(3-fluoro-4-methoxy-phenyl)-1-methyl-6-oxo-1,6-dihydro-pyrimidin-4-yl]-2-fluoro-benzonitrile] here?
Answer: Its value is 109.2 mm^3.

Question: And the “mean body weight gain by end of study” value ([3]; 2.5 mg base/kg PO QDx65)?
Answer: The value was 1%.

Question: And the “Median Tumor Volumes (mm^3) Day 0” value ([3]; 5 mg base/kg PO QDx65)?
Answer: Its value is 108.2 mm^3.

Question: And the “mean body weight gain by end of study” value ([3]; 5 mg base/kg PO QDx65)?
Answer: Its value is 7.5%.

Question: What about the “Median Tumor Volumes (mm^3) Day 1” value ([4]; 5 mg base/kg PO QDx28) of the same compound?
Answer: Its value is 173.2 mm^3.

Question: And the “Median Tumor Volumes (mm^3) Day 1” value ([4]; 10 mg base/kg PO QDx28)?
Answer: The value was 173.7 mm^3.

Question: And the “mean body weight losses” value ([4]; both studies with LU2514 model)?
Answer: The value was under 10%.

Question: And the “Median Tumor Volumes (mm^3) Day 1” value ([5]; 5 mg base/kg PO QDx21)?
Answer: Its value is 89.5 mm^3.

Question: And the “Median Tumor Volumes (mm^3) Day 1” value ([5]; 10 mg base/kg PO QDx21)?
Answer: Its value is 87.1 mm^3.

Question: And the “mean body weight losses” value [6]?
Answer: Its value is at most 3%.

Question: And the tolerability [7]?
Answer: Its tolerability is “acceptably tolerated”.

Question: What about the tolerability [8] of the same compound?
Answer: Its tolerability is “acceptably tolerated”.

Question: What about the “ST18 and FREM2 gene expression changes (upregulated)” value [9] of the same compound?
Answer: The value was “at least 2 fold”.

Question: And the “ST18 and FREM2 gene expression changes (upregulated)” value [10]?
Answer: Its value is “at least 2 fold”.

Question: And the “change in ST18 and FREM2 gene expression” value [11]?
Answer: Its value is at least 2 fold.

Question: What about the “change in ST18 and FREM2 gene expression” value [12] of the same compound?
Answer: The value was at least 2 fold.

Question: And the LNCaP cell proliferation [13]?
Answer: The LNCaP cell proliferation was “significantly inhibits LNCaP cell proliferation”.

Question: And the “maximum increase of QTcB interval versus time-matched vehicle” value ([14]; 10 mg base/kg IV)?
Answer: Its value is “approximately 9%”.

Question: What about the “maximum increase of QTcB interval versus time-matched vehicle” value ([14]; 15 mg base/kg IV) of the same compound?
Answer: The value was about 13%.

Question: And the “maximum increase of QTcB interval versus time-matched vehicle” value ([14]; 20 mg base/kg IV)?
Answer: The value was about 16%.

Question: And the “maximum suppression of HR versus vehicle” value ([14]; 20 mg base/kg IV, 9 minutes into 10-minute infusion)?
Answer: The value was 19%.

Question: What about the “effect on MAP or its components” value ([14]; 5 to 20 mg base/kg IV versus time-matched vehicle) of the same compound?
Answer: The value was “No notable effect”.

Question: And the “animals with moribund euthanasia” value ([15]; 0.375 to 1.5 mg base/kg/dose QW, study Days 13 to 23)?
Answer: Its value is 11 animals.

Question: What about the “NOEL for CV and respiratory changes” value ([15]; QW) of the same compound?
Answer: The value was 0.75 mg base/kg/dose.

Question: What about the systemic clearance [16] of the same compound?
Answer: Its systemic clearance is “high”.

Question: What about the permeability [17] of the same compound?
Answer: Its permeability is 16.5 ×10⁻⁶ cm/s.

Question: What about the metabolic stability [18] of the same compound?
Answer: Its metabolic stability is “greater in rat and dog followed by human and monkeys while being least stable in mouse hepatocytes”.

Question: And the “enzyme responsible for oxidative metabolism” value [19]?
Answer: The value was “CYP3A4 appears to be predominantly responsible”.

Question: And the “dose excreted intact (urine plus bile)” value [20]?
Answer: Its value is 26.3 % of the dose.

Question: What about the “dose excreted intact in urine” value [20] of the same compound?
Answer: The value was 8.5 % of dose.

Question: What about the “direct inhibitory effect on CYP2C9” value [21] of the same compound?
Answer: Its value is “little to no direct inhibitory effect”.

Question: What about the “direct inhibitory effect on CYP2D6” value [22] of the same compound?
Answer: Its value is “little to no direct inhibitory effect”.

Question: And the predicted clearance [23]?
Answer: The predicted clearance was 9.4 mL/min/kg.

Question: And the “increase in platelets on Day 8” value ([24]; 10 mg/kg/day 5 days on/2 days off, after 2-day dosing holiday)?
Answer: The value was over 2 fold.

Question: What about the “reduction in neutrophil counts versus concurrent controls” value ([24]; females) of the same compound?
Answer: Its value is 66%.

Question: And the “reduction in neutrophil counts versus concurrent controls” value ([24]; males)?
Answer: The value was 83%.

Question: What about the “greatest reduction in neutrophil counts versus concurrent controls and pre-study values” ([24]; 5 days on/2 days off schedule) of the same compound?
Answer: The value was “approximately 90%”.

Question: What about the “SS (number of study survivors)” value ([1]; Compound A at 5 mg/kg/day PO) of the same compound?
Answer: The value was 7.

Question: And the “MTV of study survivors on Day 133” value ([1]; Compound A monotherapy 5 mg/kg PO daily)?
Answer: Its value is 1064 mm3.

Question: And the “study survivors on Day 133” value ([1]; Compound A monotherapy 5 mg/kg PO daily, n=8)?
Answer: The value was “seven”.

Question: And the “body weight loss of female sacrificed moribund” value [25]?
Answer: Its value is 10.8%.

Question: And the NOAEL [26]?
Answer: The NOAEL was 5 mg base/kg/dose.

Question: What about the STD10 [26] of the same compound?
Answer: The STD10 was over 45 mg base/kg/dose.
